The target in test [1] is recombinant human Mcl-1 (residues 171-327) / Bim interaction (Homo sapiens (Human), UniProt Q07820). In words: biochemical. Conditions: read-out: Mcl-1 HTRF IC50. The class given is binding. For orientation: Time-resolved FRET reads energy transfer from a long-lived donor to a nearby acceptor.
For test [2], the system named is human multiple myeloma cell line, OPM-2. In words: Cell viability assay (OPM-2 10 FBS), CellTiter-Glo. Format: cell-based. Summed up:
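Cells were seeded at 3000 cells/well in RPMI 1640 with 10% FBS and exposed to serially diluted compounds for 16 h at 37 °C, 5% CO2.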
For orientation: Cellular ATP, detected with luciferase, serves as a proxy for viable cell number.

Where [3] appears, read: 0.1 nM Mcl-1(171-327), 0.05 nM biotin-Bim (51-76).
Setting [4] is: Homo sapiens, OPM-2, 16 h, read-out: OPM-2 10% FBS IC50 IP, OPM-2 cells, 10% FBS, 16 h incubation.
The mark [5] stands for this setting: TR-FRET, Mcl-1(171-327) / biotin-Bim (51-76).
The mark [6] stands for this setting: Homo sapiens, OPM-2, 16 h, read-out: OPM-2 10% FBS IC50 IP, OPM-2 cells, 10% FBS, 16 h, CellTiter-Glo.
Where [7] appears, read: read-out: OPM-2 10% FBS IC50 IP, OPM-2 cells, 10% FBS, 16 h, CellTiter-Glo.

This note sets out measurements from patent US10821115B2, “Compounds that inhibit Mcl-1 protein” (priority 2017, dated 2020).

Read-outs that look alike come from different tables or passages of the source.

recombinant human Mcl-1 (residues 171-327) / Bim interaction, sequence (Q07820 171-327): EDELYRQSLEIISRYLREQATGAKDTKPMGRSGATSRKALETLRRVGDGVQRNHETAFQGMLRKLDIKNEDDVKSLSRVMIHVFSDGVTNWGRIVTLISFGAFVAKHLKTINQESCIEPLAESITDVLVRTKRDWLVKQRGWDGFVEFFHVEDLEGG

Broadly, the IC50 is the concentration needed to halve the response being measured. `CO[C@]1(CN2CCN(C)CC2)/C=C/[C@H](C)[C@H](C)CS(=O)(=O)NC(=O)c2ccc3c(c2)N(C[C@@H]2CC[C@H]21)C[C@@]1(CCCc2cc(Cl)ccc21)CO3` [Example 160, (1S,3′R,6′R,7′R,8′E,10′S,11′S)-6-chloro-7′-methoxy-10′,11′-dimethyl-7′-((4-methyl-1-piperazinyl)methyl)-3,4-dihydro-2H,15′H-spiro[naphthalene-1,22′-[20]oxa[13]thia[1,14]diazatetracyclo [14.7.2.0~3,6~.0~19,24~]pentacosa[8,16,18,24]tetraen]-15′-one 13′,13′-dioxide]: the IC50 in test [1] (setting [3]) was found to be 0.221 nM; in test [2] (setting [4]), 148 nM.

In the case of `CO[C@@]1(CC(=O)N(C)C2CCCC2)/C=C/C[C@H](C)[C@@H](C)S(=O)(=O)NC(=O)c2ccc3c(c2)N(C[C@@H]2CC[C@H]21)C[C@@]1(CCCc2cc(Cl)ccc21)CO3` [Example 100405, 2-((1S,3′R,6′R,7′S,8′E,11′S,12′R)-6-chloro-7′-methoxy-11′,12′-dimethyl-13′,13′-dioxido-15′-oxo-3,4-dihydro-2H-spiro[naphthalene-1,22′-[20]oxa[13]thia[1,14]diazatetracyclo [14.7.2.0~3,6~.0~19,24~]pentacosa[8,16,18,24]tetraen]-7′-yl)-N-cyclopentyl-N-methylacetamide], the IC50 was found to be 0.545 nM in test [1] (setting [5]) and 1120 nM in test [2] (setting [6]).

In the case of `CO[C@@]1(C#CCCN2CCN(S(C)(=O)=O)CC2)/C=C/C[C@H](C)[C@@H](C)S(=O)(=O)NC(=O)c2ccc3c(c2)N(C[C@@H]2CC[C@H]21)C[C@@]1(CCCc2cc(Cl)ccc21)CO3` [Example 100488, (1S,3′R,6′R,7′S,8′E,11′S,12′R)-6-chloro-7′-methoxy-11′,12′-dimethyl-7′-(4-(4-(methylsulfonyl)-1-piperazinyl)-1-butyn-1-yl)-3,4-dihydro-2H,15′H-spiro[naphthalene-1,22′-[20]oxa[13]thia[1,14]diazatetracyclo [14.7.2.0~3,6~.0~19,24~]pentacosa[8,16,18,24]tetraen]-15′-one 13′,13′-dioxide], the IC50 in test [1] (setting [5]) was 0.389 nM; in test [2] (setting [6]), 346 nM.

With `C[C@@H]1[C@@H](C)C/C=C/[C@](O)(C#CCC2CCOCC2)[C@@H]2CC[C@H]2CN2C[C@@]3(CCCc4cc(Cl)ccc43)COc3ccc(cc32)C(=O)NS1(=O)=O` [Example 100433, (1S,3′R,6′R,7′R,8′E,11′S,12′R)-6-chloro-7′-hydroxy-11′,12′-dimethyl-7′-(3-(tetrahydro-2H-pyran-4-yl)-1-propyn-1-yl)-3,4-dihydro-2H,15′H-spiro[naphthalene-1,22′-[20]oxa[13]thia[1,14]diazatetracyclo [14.7.2.0~3,6~.0~19,24~]pentacosa[8,16,18,24]tetraen]-15′-one 13′,13′-dioxide], the IC50 in test [1] (setting [5]) is 0.026 nM; in test [2] (setting [6]) it was 296 nM.

Take `COc1ccc([C@@]2(O)/C=C/C[C@H](C)[C@@H](C)S(=O)(=O)NC(=O)c3ccc4c(c3)N(C[C@@H]3CC[C@H]32)C[C@@]2(CCCc3cc(Cl)ccc32)CO4)cn1` (single isomer, unassigned) [Example 100362]: the figures for the IC50 in test [1] (setting [5]) and in test [2] (setting [6]) were 0.888 nM and 2100 nM, respectively.

Take `CO[C@@]1(CN2CC(C)(N(C)C)C2)/C=C/C[C@H](C)[C@@H](C)S(=O)(=O)NC(=O)c2ccc3c(c2)N(C[C@@H]2CC[C@H]21)C[C@@]1(CCCc2cc(Cl)ccc21)CO3` [Example 59, (1S,3′R,6′R,7′S,8′E,11′S,12′R)-6-chloro-7′-((3-(dimethylamino)-3-methyl-1-azetidinyl)methyl)-7′-methoxy-11′,12′-dimethyl-3,4-dihydro-2H,15′H-spiro[naphthalene-1,22′-[20]oxa[13]thia[1,14]diazatetracyclo [14.7.2.0~3,6~.0~19,24~]pentacosa[8,16,18,24]tetraen]-15′-one 13′,13′-dioxide]: the IC50 was 0.116 nM in test [1] (setting [3]) and 48 nM in test [2] (setting [4]).

In the case of `C[C@@H]1[C@@H](C)CCC[C@](O)(COCCN(C)C)[C@@H]2CC[C@H]2CN2C[C@@]3(CCCc4cc(Cl)ccc43)COc3ccc(cc32)C(=O)NS1(=O)=O` (stereo in doubt) [Example 100196], the IC50 was found to be 0.461 nM in test [1] (setting [5]) and 358 nM in test [2] (setting [7]).

On to `COCC(=O)N1CCN(C[C@]2(OC)/C=C/C[C@H](C)[C@@H](C)S(=O)(=O)NC(=O)c3ccc4c(c3)N(C[C@@H]3CC[C@H]32)C[C@@]2(CCCc3cc(Cl)ccc32)CO4)CC1` [Example 246, (1S,3′R,6′R,7′S,8′E,11′S,12′R)-6-chloro-7′-methoxy-7′-((4-(methoxyacetyl)-1-piperazinyl)methyl)-11′,12′-dimethyl-3,4-dihydro-2H,15′H-spiro[naphthalene-1,22′-[20]oxa[13]thia[1,14]diazatetracyclo [14.7.2.0~3,6~.0~19,24~]pentacosa[8,16,18,24]tetraen]-15′-one 13′,13′-dioxide], for which the IC50 in test [1] (setting [3]) came out at 0.099 nM; in test [2] (setting [4]), 138 nM.

With `CC#C[C@]1(O)CCC[C@H](C)[C@@H](C)S(=O)(=O)NC(=O)c2ccc3c(c2)N(C[C@@H]2CC[C@H]21)C[C@@]1(CCCc2cc(Cl)ccc21)CO3` [Example 100267, (1S,3′R,6′R,7′S,11′S,12′R)-6-chloro-7′-hydroxy-11′,12′-dimethyl-7′-(1-propyn-1-yl)-3,4-dihydro-2H,15′H-spiro[naphthalene-1,22′-[20]oxa[13]thia[1,14]diazatetracyclo [14.7.2.0~3,6~.0~19,24~]pentacosa[16,18,24]trien]-15′-one 13′,13′-dioxide], the IC50 was 0.166 nM in test [1] and 274 nM in test [2] (setting [7]).

For `COC[C@@H]1[C@@H](C)C/C=C/[C@](CN2CCN3CCCC[C@@H]3C2)(OC)[C@@H]2CC[C@H]2CN2C[C@@]3(CCCc4cc(Cl)ccc43)COc3ccc(cc32)C(=O)NS1(=O)=O` [Example 169], the IC50 in test [1] (setting [3]) is 0.14 nM; in test [2] (setting [4]), 74 nM.

Turning to `CO[C@@]1(C[C@@H](O)C(C)C)/C=C/C[C@H](C)[C@@H](C)S(=O)(=O)NC(=O)c2ccc3c(c2)N(C[C@@H]2CC[C@H]21)C[C@@]1(CCCc2cc(Cl)ccc21)CO3` (single isomer, unassigned) [Example 100367], the figures for the IC50 in test [1] (setting [5]) and in test [2] (setting [7]) were 0.371 nM and 604 nM, respectively.

In the case of `CO[C@@]1(CN2CCN(C3COCCOC3)CC2)/C=C/C[C@H](C)[C@@H](C)S(=O)(=O)NC(=O)c2ccc3c(c2)N(C[C@@H]2CC[C@H]21)C[C@@]1(CCCc2cc(Cl)ccc21)CO3` [Example 340, (1S,3′R,6′R,7′S,8′E,11′S,12′R)-6-chloro-7′-((4-(1,4-dioxepan-6-yl)-1-piperazinyl)methyl)-7′-methoxy-11′,12′-dimethyl-3,4-dihydro-2H,15′H-spiro[naphthalene-1,22′-[20]oxa[13]thia[1,14]diazatetracyclo [14.7.2.0~3,6~.0~19,24~]pentacosa[8,16,18,24]tetraen]-15′-one 13′,13′-dioxide], the IC50 in test [1] (setting [3]) amounted to 0.128 nM; in test [2] (setting [4]), 60 nM.

Turning to `CO[C@@]1(CN(C)C)/C=C/C[C@H](C)[C@@H](C)S(=O)(=O)NC(=O)c2ccc3c(c2)N(C[C@@H]2CC[C@H]21)C[C@@]1(CCCc2cc(Cl)ccc21)CO3` [Example 66, (1S,3′R,6′R,7′S,8′E,11′S,12′R)-6-chloro-7′-((dimethylamino)methyl)-7′-methoxy-11′,12′-dimethyl-3,4-dihydro-2H,15′H-spiro[naphthalene-1,22′-[20]oxa[13]thia[1,14]diazatetracyclo [14.7.2.0~3,6~.0~19,24~]pentacosa[8,16,18,24]tetraen]-15′-one 13′,13′-dioxide], the IC50 in test [1] (setting [3]) was 0.246 nM; in test [2] (setting [4]), 318 nM.
